Among the data in patent US6025378A, “Bicyclic heterocyclic compounds” (Bayer Aktiengesellschaft, priority 1995, dated 2000) are IC50 values, retold here.

This assay has as its system ApoB-100-associated lipoproteins released from HepG2 cells. Kind of assay: Inhibition of the release of ApoB-100-associated lipoproteins from cultured hepatic HepG2 cells (immunoassay for human LDL). It counts as cell-based. Particulars: culture supernatant, absorption at 450 nm inhibited by 50% vs solvent control, read-out: Apo B IC50. The method, then: 1. Inhibition of the Release of ApoB-100-associated Lipoproteins
The test for detection of the inhibition of the release of ApoB-100-associated lipoproteins from hepatic cells was carried out in vitro with cultured hepatic cells, preferably with cells of the human line HepG2. These cells are cultured under standard conditions in medium for culture of eukaryotic cells, preferably in RPMI 1640 with 10% foetal calf serum. HepG2 cells synthesize and secrete into the culture supernatant ApoB-100-associated lipoprotein particles, which are in principle built up similarly to the VLDL and LDL particles which are to be found in plasma.
These particles can be detected with an immunoassay for human LDL. This immunoassay is carried out with antibodies which have been induced against human LDL in rabbits under standard conditions. The anti-LDL antibodies (rab-anti-LDL-Ab) were purified by affinity chromatography on an immunosorbent with human LDL. These purified rab-anti-LDL-Ab are adsorbed onto the surface of plastic. This adsorption is expediently carried out on the plastic surface of microtiter plates with 96 wells, preferably on MaxiSorp plates. If ApoB-100-associated particles are present in the supernatant of Hep-G2 cells, these can bond to the insolubilized rab-anti-LDL-Ab, and an immune complex bonded to the plastic surface is formed. Non-bonded proteins are removed by washing The immune complex on the plastic source is detected with monoclonal antibodies, which have been induced against human LDL and purified under standard conditions. These antibodies were conjugated with the enzyme peroxidase. Peroxidase converts the colourless substrate TMB into a coloured product in the presence of H2 O2. After acidification of the reaction mixture with H2 SO4, the specific absorption of light is determined at 450 nm, this being a measure of the amount of ApoB-100-associated particles wich had been secreted by the HepG2 cells into the culture supernatant.
The IC50 value indicates the concentration of substance at which the absorption of light is inhibited by 50% compared with the control (solvent control without the substance).

Where [1] appears, read: Homo sapiens, HepG2, HepG2 cells.

Read-outs that look alike come from different tables or passages of the source.

The term IC50 denotes the concentration needed to halve the response being measured. For `C[S+]([O-])c1nc2ccccc2n1Cc1ccc(C(C(=O)N[C@@H](CO)c2ccccc2)C2CCCCCC2)cc1` (mixture of isomers) [Example 79, 2-(R/S)-Cycloheptyl-N-(2-hydroxy-1-(R)-phenylethyl)-2-[4-(2-methyl-(R/S)-sulphinyl-benzimidazol-1-ylmethyl)phenyl]acetamide], the IC50 under setting [1] was found to be 15.2 nM. On to `CSc1nc2ccccc2n1Cc1ccc(C(C(=O)N[C@@H](CO)c2ccccc2)C2CCCC2)cc1` (single isomer, unassigned) [Example 3], for which the IC50 (HepG2 cells) amounted to 11.6 nM. Same read-out and setting: the same measure for `CSc1nc2ccccc2n1Cc1ccc(C(C(=O)N[C@@H](CO)c2ccccc2)C2CCCC2)cc1` (single isomer, unassigned) [Example 4]: 298 nM; for `CSc1nc2ccccc2n1Cc1ccc(C(C(=O)N[C@@H](CO)c2ccccc2)C2CCCCCC2)cc1` (single isomer, unassigned) [Example 6]: 8 nM. Still for that read-out and setting: for `CSc1nc2ccccc2n1Cc1ccc(C(C(=O)N[C@@H](CO)c2ccccc2)C2CCCCCC2)cc1` (single isomer, unassigned) [Example 7] the value was 150 nM.

For `O=C(N[C@@H](CO)c1ccccc1)C(c1ccc(Cn2c(SCc3ccccc3)nc3ccccc32)cc1)C1CCCC1` (single isomer, unassigned) [Example 12], the IC50 under setting [1] turned out to be 12.6 nM. As to `O=C(N[C@@H](CO)c1ccccc1)C(c1ccc(Cn2c(SCc3ccccc3)nc3ccccc32)cc1)C1CCCC1` (single isomer, unassigned) [Example 13], under “HepG2 cells”, the IC50 turned out to be 14.3 nM. Turning to `O=C(CSc1nc2ccccc2n1Cc1ccc(C(C(=O)N[C@@H](CO)c2ccccc2)C2CCCC2)cc1)c1ccccc1` (single isomer, unassigned) [Example 18], the IC50 (HepG2 cells) was 930 nM.

On to `O=C(CSc1nc2ccccc2n1Cc1ccc(C(C(=O)N[C@@H](CO)c2ccccc2)C2CCCC2)cc1)c1ccccc1` (single isomer, unassigned) [Example 19], for which the IC50 (HepG2 cells) turned out to be 388 nM. For `Cc1cc2nc(C(F)(F)F)n(Cc3ccc(C(C(=O)N[C@@H](CO)c4ccccc4)C4CCCC4)cc3)c2cc1C` (single isomer, unassigned) [Example 23], under “HepG2 cells”, the IC50 turned out to be 147 nM.

Turning to `Cc1cc2nc(C(F)(F)F)n(Cc3ccc(C(C(=O)N[C@@H](CO)c4ccccc4)C4CCCC4)cc3)c2cc1C` (single isomer, unassigned) [Example 24], for the setting “HepG2 cells”, the IC50 was determined as 16.3 nM.

For `O=C(N[C@@H](CO)c1ccccc1)C(c1ccc(Cn2c(-c3cscn3)nc3ccccc32)cc1)C1CCCC1` (single isomer, unassigned) [Example 26], the IC50 (HepG2 cells) was 4.5 nM. Still for that read-out and setting: the same measure for `O=C(N[C@@H](CO)c1ccccc1)C(c1ccc(Cn2c(-c3cscn3)nc3ccccc32)cc1)C1CCCC1` (single isomer, unassigned) [Example 27]: 90.9 nM; for `O=C(N[C@@H](CO)c1ccccc1)C(c1ccc(Cn2c(-c3cscn3)nc3ccccc32)cc1)C1CCCCCC1` (single isomer, unassigned) [Example 30]: 112 nM; for `O=C(N[C@@H](CO)c1ccccc1)C(c1ccc(Cn2c(-c3cscn3)nc3ccccc32)cc1)C1CCCCCC1` (single isomer, unassigned) [Example 31]: 7.3 nM. On to `Cc1nc(-c2nc3ccccc3n2Cc2ccc(C(C(=O)N[C@@H](CO)c3ccccc3)C3CCCC3)cc2)cs1` (single isomer, unassigned) [Example 34], for which the IC50 (HepG2 cells) came out at 26.6 nM. On to `Cc1nc(-c2nc3ccccc3n2Cc2ccc(C(C(=O)N[C@@H](CO)c3ccccc3)C3CCCC3)cc2)cs1` (single isomer, unassigned) [Example 35], for which the IC50 (HepG2 cells) turned out to be 11.2 nM.

For the compound `Cc1nc2ccccc2c(=O)n1Cc1ccc(C(C(=O)N[C@@H](CO)c2ccccc2)C2CCCC2)cc1` (stereo partly drawn) [Example 1, 2-Cyclopentyl-N-(2-hydroxy-1-(R)-phenylethyl)-2-[4-(2-methyl-4-oxo-4H-quinazolin-3-yl-methyl)phenyl]acetamide], under setting [1], the IC50 was determined as 44.4 nM. Still for that read-out and setting: the same measure for `CSc1nc2ccccc2n1Cc1ccc(C(C(=O)N[C@@H](CO)c2ccccc2)C2CCCC2)cc1` (stereo partly shown) [Example 2]: 38.1 nM; for `CSc1nc2ccccc2n1Cc1ccc(C(C(=O)N[C@@H](CO)c2ccccc2)C2CCCCCC2)cc1` (stereo partly shown) [Example 5]: 36 nM. As to `CSc1nc2cc(C)c(C)cc2n1Cc1ccc(C(C(=O)N[C@@H](CO)c2ccccc2)C2CCCC2)cc1` (stereo partly shown) [Example 8], under setting [1], the IC50 stood at 4.7 nM.

In the case of `CCSc1nc2ccccc2n1Cc1ccc(C(C(=O)N[C@@H](CO)c2ccccc2)C2CCCC2)cc1` (stereo partly shown) [Example 9], under setting [1], the IC50 amounted to 2.8 nM. With `C=CCSc1nc2ccccc2n1Cc1ccc(C(C(=O)N[C@@H](CO)c2ccccc2)C2CCCC2)cc1` (stereo partly shown) [Example 10], the IC50 under setting [1] is 9.5 nM. As to `O=C(N[C@@H](CO)c1ccccc1)C(c1ccc(Cn2c(SCc3ccccc3)nc3ccccc32)cc1)C1CCCC1` (stereo partly shown) [Example 11], the IC50 under setting [1] was found to be 4.7 nM. In the case of `O=C(N[C@@H](CO)c1ccccc1)C(c1ccc(Cn2c(SCc3c(Cl)cccc3Cl)nc3ccccc32)cc1)C1CCCC1` (stereo partly shown) [Example 14], the concentration for half-maximal inhibition (IC50) under setting [1] was 130 nM. Turning to `O=C(N[C@@H](CO)c1ccccc1)C(c1ccc(Cn2c(Cc3ccccc3)nc3ccccc32)cc1)C1CCCC1` (stereo partly shown) [Example 20], under setting [1], the IC50 worked out at 248 nM. Still for that read-out and setting: for `O=C(N[C@@H](CO)c1ccccc1)C(c1ccc(Cn2c(-c3cscn3)nc3ccccc32)cc1)C1CCCC1` (stereo partly shown) [Example 25] the value was 7.3 nM.

Take `O=C(N[C@@H](CO)c1ccccc1)C(c1ccc(Cn2c(-c3cscn3)nc3ccccc32)cc1)C1CCCCC1` (stereo partly shown) [Example 28]: the IC50 under setting [1] worked out at 27.9 nM. As to `O=C(N[C@@H](CO)c1ccccc1)C(c1ccc(Cn2c(-c3cscn3)nc3ccccc32)cc1)C1CCCCCC1` (stereo partly shown) [Example 29], the IC50 under setting [1] is 9.3 nM. On to `O=C(NCc1ccccc1)C(c1ccc(Cn2c(-c3cscn3)nc3ccccc32)cc1)C1CCCCCC1` (stereo not shown) [Example 32], for which the IC50 under setting [1] is 5.3 nM. Still for that read-out and setting: the same measure for `Cc1nc(-c2nc3ccccc3n2Cc2ccc(C(C(=O)N[C@@H](CO)c3ccccc3)C3CCCC3)cc2)cs1` (stereo partly shown) [Example 33]: 5.3 nM.

On to `O=C(N[C@@H](CO)c1ccccc1)C(c1ccc(Cn2c(-c3csc(-c4ccccc4)n3)nc3ccccc32)cc1)C1CCCC1` (stereo partly shown) [Example 36], for which the IC50 under setting [1] worked out at 9.1 nM. Same read-out and setting: the same measure for `O=C(N[C@@H](CO)c1ccccc1)C(c1ccc(Cn2c(-c3ccsc3)nc3ccccc32)cc1)C1CCCC1` (stereo partly shown) [Example 37]: 3.6 nM; for `Cc1ccc2c(nc(-c3ccsc3)n2Cc2ccc(C(C(=O)N[C@@H](CO)c3ccccc3)C3CCCC3)cc2)c1C` (stereo partly shown) [Example 38]: 36.3 nM; for `O=C(N[C@@H](CO)c1ccccc1)C(c1ccc(Cn2c(-c3cccs3)nc3ccccc32)cc1)C1CCCC1` (stereo partly shown) [Example 39]: 81.7 nM. For the compound `Cc1ccc2c(nc(-c3cccs3)n2Cc2ccc(C(C(=O)N[C@@H](CO)c3ccccc3)C3CCCC3)cc2)c1C` (stereo partly shown) [Example 40], under setting [1], the IC50 stood at 69 nM.

As for `O=C(N[C@@H](CO)c1ccccc1)C(c1ccc(Cn2c(-c3cc4ccccc4s3)nc3ccccc32)cc1)C1CCCC1` (stereo partly shown) [Example 41], the IC50 under setting [1] came to 10.6 nM. Take `O=C(N[C@@H](CO)c1ccccc1)C(c1ccc(Cn2c(-c3ccccn3)nc3ccccc32)cc1)C1CCCC1` (stereo partly shown) [Example 44]: the IC50 under setting [1] came out at 11.3 nM. As to `O=C(N[C@@H](CO)c1ccccc1)C(c1ccc(Cn2c(-c3ccccn3)nc3ccccc32)cc1)C1CCCCCC1` (stereo partly shown) [Example 47], the IC50 under setting [1] is 18.8 nM. Regarding `O=C(NCc1ccccc1)C(c1ccc(Cn2c(-c3ccccn3)nc3ccccc32)cc1)C1CCCCCC1` (stereo not shown) [Example 48], the IC50 under setting [1] is 6.3 nM. Regarding `O=C(N[C@@H](CO)c1ccccc1)C(c1ccc(Cn2c(-c3cccnc3)nc3ccccc32)cc1)C1CCCC1` (stereo partly shown) [Example 49], the IC50 under setting [1] stood at 3.6 nM. As to `O=C(N[C@@H](CO)c1ccccc1)C(c1ccc(Cn2c(-c3ccncc3)nc3ccccc32)cc1)C1CCCC1` (stereo partly shown) [Example 50], under setting [1], the IC50 was 17.9 nM. For `O=C(N[C@@H](CO)c1ccccc1)C(c1ccc(Cn2c(=O)oc3ccccc32)cc1)C1CCCCCC1` (stereo partly shown) [Example 51], the IC50 under setting [1] is 5.7 nM. Same read-out and setting: the same measure for `O=C(N[C@@H](CO)c1ccccc1)C(c1ccc(Cn2c(=S)[nH]c3ccccc32)cc1)C1CCCCCC1` (stereo partly shown) [Example 52]: 518 nM. For the compound `Cc1cccc2c1[nH]c(=S)n2Cc1ccc(C(C(=O)N[C@@H](CO)c2ccccc2)C2CCCC2)cc1` (stereo partly shown) [Example 53], for the setting “HepG2 cells”, the IC50 worked out at 1690 nM. `Cc1cccc2c1[nH]c(=S)n2Cc1ccc(C(C(=O)N[C@@H](CO)c2ccccc2)C2CCCC2)cc1` (stereo partly shown) [Example 54]: for the setting “HepG2 cells”, the IC50 came to 60.2 nM. As for `Cc1cccc2c1[nH]c(=S)n2Cc1ccc(C(C(=O)N[C@@H](CO)c2ccccc2)C2CCCC2)cc1` (stereo partly shown) [Example 55], the IC50 (HepG2 cells) stood at 19.5 nM. `O=C(N[C@@H](CO)c1ccccc1)C(c1ccc(CN2C(=O)COc3cccnc32)cc1)C1CCCCCC1` (stereo partly shown) [Example 57]: the IC50 (HepG2 cells) is 5 nM.

Consider `O=C(N[C@@H](CO)c1ccccc1)C(c1ccc(CN2C(=O)COc3cccnc32)cc1)C1CCCCCC1` (stereo partly shown) [Example 58], for which the IC50 (HepG2 cells) stood at 251 nM.
